Where “and” joins values, the source holds several entries; their conditions need not be identical. Identical values can stand only once.
How the values were obtained:
[1] = test system: P. aeruginosa ATCC27853; experiment: microbe, parasite or virus in culture; parameters: MICa: MIC of the antibiotic / MICac: MIC of the antibiotic in the combination: unit not given beside the values
Procedure: (§1) The MIC tests were performed in triplicate using broth microdilution in accordance with Clinical and Laboratory Standards Institute (CLSI) recommendations (http://iacld.ir/DL/public/CLSI-2018-M100-S28.pdf). Briefly, drugs were two-fold diluted in MHB and mixed with an equal volume of bacterial suspensions containing approximately 1 × 10^6 CFU/mL in 96-well microliter plate. After 18 h incubation at 37 °C, the MIC values were defined as the lowest concentrations of antibiotics with no visible growth of bacteria. […] Otherwise, 1/4 MIC of the peptide was used in the combination. […] If needed, membrane compounds PG, PE, PC, CL or LPS, or membrane stabilizers MgCl2 or CaCl2, or efflux pumps inhibitor PAβN were added to the broth medium to clarify the effect of other substances on the synergy between peptide and antibiotics. All the tests were performed in triplicate.
(§2) The fractional inhibitory concentration (FIC) indices were calculated using the previously described formula FICI = FICa + FICb = MICac/MICa + MICbc/MICb. The FICI was interpreted according to EUCAST [65] as follows: synergistic, FICI≤0.5; additive, 0.5<FICI≤1; indifferent, 1<FICI<2; antagonistic, FICI ≥2. For the FICI calculations, twice the highest concentration tested was used in the cases where the MIC was not reached.

[2] = test system: P. aeruginosa PAK; experiment: microbe, parasite or virus in culture; parameters: MICa: MIC of the antibiotic / MICac: MIC of the antibiotic in the combination: unit not given beside the values
Procedure: as §1, §2

[3] = test system: P. aeruginosa NR-31040; experiment: microbe, parasite or virus in culture; parameters: MICa: MIC of the antibiotic / MICac: MIC of the antibiotic in the combination: unit not given beside the values; details: strain NR-31040, unit not given
Procedure: as §1, §2

[4] = test system: P. aeruginosa PA14; experiment: microbe, parasite or virus in culture; parameters: MICa: MIC of the antibiotic / MICac: MIC of the antibiotic in the combination: unit not given beside the values
Procedure: as §1, §2

[5] = test system: P. aeruginosa NR-31041; experiment: microbe, parasite or virus in culture; parameters: MICa: MIC of the antibiotic / MICac: MIC of the antibiotic in the combination: unit not given beside the values
Procedure: as §1, §2

[6] = test system: P. aeruginosa AUMC-Pa-5; experiment: microbe, parasite or virus in culture; details: strain AUMC-Pa-5
Procedure: as §1, §2

[7] = test system: P. aeruginosa PAO1; experiment: microbe, parasite or virus in culture; details: PAO1
Procedure: as §1, §2

[8] = test system: P. aeruginosa AUMC-Pa-4; experiment: microbe, parasite or virus in culture
Procedure: as §1, §2

[9] = test system: P. aeruginosa AUMC-Pa-3; experiment: microbe, parasite or virus in culture
Procedure: as §1, §2

[10] = test system: P. aeruginosa AUMC-Pa-6; experiment: microbe, parasite or virus in culture
Procedure: as §1, §2

[11] = test system: P. aeruginosa HM-214; details: strain HM-214; antibiotic + D-11 (MICb/MICbc 128/4)
Procedure: as §1, §2

[12] = test system: P. aeruginosa AUMC-Pa-1; details: strain AUMC-Pa-1; antibiotic + D-11 (MICb/MICbc 128/4)
Procedure: as §1, §2

[13] = test system: P. aeruginosa AUMC-Pa-2; details: strain AUMC-Pa-2; antibiotic + D-11 (MICb/MICbc 64/4)
Procedure: as §1, §2

[14] = test system: clinical P. aeruginosa isolates; experiment: microbe, parasite or virus in culture; details: antibiotic alone
Procedure: The bacterial strains, primers and plasmids used in this study are listed in S5 Table. […] Bacteria were cultured in LB medium or cation-adjusted Muller-Hinton broth (CA-MHB) at 37 °C with agitation at 220 rpm. All the antibiotics and chemical compounds used in this study were purchased from Sigma-Aldrich.
as §1

[15] = S3 Table, antibiotic + 4 μM D-11

CC1COc2c(N3CCN(C)CC3)c(F)cc3c(=O)c(C(=O)O)cn1c23 (stereo not drawn) [Ofloxacin]
MIC ([1]; Pseudomonas aeruginosa, ATCC27853, 18 h, read-out: MICa: MIC of the antibiotic): 2 µM | FICI ([1]; strain ATCC27853, antibiotic + D-11 (MICb/MICbc 32/4)): 0.250 | MICac: MIC of the antibiotic in the combination ([1]; strain ATCC27853, with D-11 at MICbc 4, unit not given): 0.25 | MIC ([2]; Pseudomonas aeruginosa, 18 h, read-out: MICa: MIC of the antibiotic): 2 µM | FICI ([2]; strain PAK, antibiotic + D-11 (MICb/MICbc 64/4)): 0.313 | MICac: MIC of the antibiotic in the combination ([2]; strain PAK, with D-11 at MICbc 4, unit not given): 0.5 | MICa: MIC of the antibiotic ([3]; antibiotic alone): 2 | MICac: MIC of the antibiotic in the combination ([3]; with D-11 at MICbc 4): 1 | MIC ([4]; Pseudomonas aeruginosa, PA14, 18 h, read-out: MICa: MIC of the antibiotic): 1 µM | MICac: MIC of the antibiotic in the combination ([4]; strain PA14, with D-11 at MICbc 4, unit not given): 0.5 | MIC ([5]; Pseudomonas aeruginosa, NR31041, 18 h, read-out: MICa: MIC of the antibiotic): 2 µM | FICI ([5]; strain NR-31041, antibiotic + D-11 (MICb/MICbc 64/4)): 0.313 | MICac: MIC of the antibiotic in the combination ([5]; strain NR-31041, with D-11 at MICbc 4, unit not given): 0.5 | FICI ([6]; antibiotic + D-11 (MICb/MICbc 64/4)): 2.063 | MICa: MIC of the antibiotic ([6]; antibiotic alone, unit not given): 1 | MICac: MIC of the antibiotic in the combination ([6]; with D-11 at MICbc 4, unit not given): 2 | MIC ([7]; Pseudomonas aeruginosa, PAO1, 18 h, read-out: MICa: the MIC of antibiotics, S3 Table, antibiotic alone): 1 µM | FICI ([7]; S3 Table, antibiotic + 2 μM D-11): 0.188 | FICI [7, 15]: 0.156 | MICac: the MIC for the antibiotic in the combination ([7]; S3 Table, with 2 μM D-11): 0.125 µM | MICac: the MIC for the antibiotic in the combination ([7]; S3 Table, with 4 μM D-11): 0.03125 µM | MIC ([8]; Pseudomonas aeruginosa, AUMCPA4, 18 h, read-out: MICa: MIC of the antibiotic): 1 µM | MICac: MIC of the antibiotic in the combination ([8]; strain AUMC-Pa-4, with D-11 at MICbc 4, unit not given): 0.25 | MIC ([9]; Pseudomonas aeruginosa, AUMCPA3, 18 h, read-out: MICa: MIC of the antibiotic): 1 µM | FICI ([9]; strain AUMC-Pa-3, antibiotic + D-11 (MICb/MICbc 128/4)): 0.281 | MICac: MIC of the antibiotic in the combination ([9]; strain AUMC-Pa-3, with D-11 at MICbc 4, unit not given): 0.25 | MIC ([10]; Pseudomonas aeruginosa, AUMCPA6, 18 h, read-out: MICa: MIC of the antibiotic): 0.5 µM | FICI ([10]; strain AUMC-Pa-6, antibiotic + D-11 (MICb/MICbc 64/4)): 1.063 | MICac: MIC of the antibiotic in the combination ([10]; strain AUMC-Pa-6, with D-11 at MICbc 4, unit not given): 0.5/0.5 | FICI [11]: 1.031 | FICI [12]: 0.094 | FICI [13]: 0.563

Neomycin
Antibiotic sensibility (MIC) of clinical P. aeruginosa isolate AUMC-Pa-1 ([14]; strain AUMC-Pa-1): 1 µM | Antibiotic sensibility (MIC) of clinical P. aeruginosa isolate AUMC-Pa-2 ([14]; strain AUMC-Pa-2): 0.5 µM | Antibiotic sensibility (MIC) of clinical P. aeruginosa isolate AUMC-Pa-3 ([14]; strain AUMC-Pa-3): 0.0625 µM | Antibiotic sensibility (MIC) of clinical P. aeruginosa isolate AUMC-Pa-4 ([14]; strain AUMC-Pa-4): 0.5 µM | Antibiotic sensibility (MIC) of clinical P. aeruginosa isolate AUMC-Pa-5 ([14]; strain AUMC-Pa-5): 0.5 µM | Antibiotic sensibility (MIC) of clinical P. aeruginosa isolate AUMC-Pa-6 ([14]; strain AUMC-Pa-6): 2 µM | Antibiotic sensibility (MIC) of clinical P. aeruginosa isolate HM-214 ([14]; strain HM-214): 2 µM | Antibiotic sensibility (MIC) of clinical P. aeruginosa isolate NR-31040 ([14]; strain NR-31040): 8 µM | Antibiotic sensibility (MIC) of clinical P. aeruginosa isolate NR-31041 ([14]; strain NR-31041): 4 µM | FICI [7, 15]: 2.125 | MICac: the MIC for the antibiotic in the combination ([7]; S3 Table, with 2 μM D-11): 2/2 μM | MICac: the MIC for the antibiotic in the combination ([7]; S3 Table, with 4 μM D-11): 4 µM | MICa: the MIC of antibiotics ([7]; S3 Table, antibiotic alone): 2/2 μM and 2 μM
